From US20080214666A1, “Products and Methods Related to Mono-Methyl Branched-Chain Fatty Acids” (The Regents of the University of Colorado, priority 2004, published 2008)
“Also recorded” adds a separate entry of the source.

What was measured:
[1] = test system: elo-5(RNAi) worms; assay: GC analysis of FA composition in elo-5(RNAi) worms grown on supplemented plates; format: in vivo, Caenorhabditis elegans; conditions: for elongation of the supplement to C17ISO: added as food supplements; for incorporation of the supplement into lipids and its elongation (GC): elo-5(RNAi) worms on supplemented plates
Experimental: A mixed population of well-fed worms were washed off the plates with water, rinsed 3-4 times, and, after aspirating away water, were frozen at −80° C. Fatty Acid Methyl Esters and lipid extraction were performed as described (Miquel and Browse 1992). GC was performed on the HP6890N (Agilent) equipped with a DB-23 column (30 m×250 μm×0.25 μm) (Kniazeva, Sieber et al. 2003). Each experiment was repeated at least five times. Average values and standard deviations were then calculated for each of the compounds in the experiments.
(§1) Ninety μl of the 4 mM solution of FA (Sigma) in 1% NP40 or 10% DMSO was dropped on the side of the bacterial lawn that contained either elo-5 dsRNA-producing plasmid or the control HT115 vector. Two synchronized young adults were plated and their progeny was scored 4 and 5 days later. Each experiment was performed in at least 30 replicates. For recovering elo-5(RNAi) worms from L1 arrest, wild type adults were placed on the elo-5(RNAi) plates. Four days later, their progeny was removed and eggs of the next generation were left on the plates. Hatched L1 were kept for two or four days before transferring as agar chunks to new elo-5(RNAi) plates. FA supplements were added to spots next to the chunks. Ten plates were prepared for each FA supplement. Control plates contained no supplements. […] Neither C15 nor C17 mmBCFA added to let-418(RNAi) plates modified the expected phenotype.

[2] = test system: elo-5(RNAi) worms; assay: Phenotype rescue of elo-5(RNAi) worms using FA supplements; format: in vivo, Caenorhabditis elegans; conditions: for plates on which the supplement rescued the elo-5 RNAi defects: FA supplement (90 μl of 4 mM) on elo-5(RNAi) plates, progeny scored 4 and 5 days later, rescued/total plates; for rescue of mmBCFA deficiency: added as food supplements; for plates with partial rescue of the elo-5 RNAi defects: FA supplement on elo-5(RNAi) plates, partially rescued/total plates; for rescue of elo-5(RNAi) phenotype: animals grown on elo-5 RNAi plates with supplement or mmBCFA-producing bacteria
Experimental: The RNAi feeding strain was E. coli HT115 transformed with either empty pPD129.36 vector (controls) or with dsRNA-producing constructs. Unless stated differently, wild type N2 Bristol animals were plated as synchronized adults.
Ninety μl of the 4 mM solution of FA (Sigma) in 1% NP40 or 10% DMSO was dropped on the side of the bacterial lawn that contained either elo-5 dsRNA-producing plasmid or the control HT115 vector. Two synchronized young adults were plated and their progeny was scored 4 and 5 days later. Each experiment was performed in at least 30 replicates. For recovering elo-5(RNAi) worms from L1 arrest, wild type adults were placed on the elo-5(RNAi) plates. Four days later, their progeny was removed and eggs of the next generation were left on the plates. Hatched L1 were kept for two or four days before transferring as agar chunks to new elo-5(RNAi) plates. FA supplements were added to spots next to the chunks. Ten plates were prepared for each FA supplement. Control plates contained no supplements.

[3] = test system: elo-5(gk208); assay: Rescue, growth and maturation of the elo-5(gk208) mutant on supplemented plates; format: in vivo, C. elegans
[4] = Elongation of exogenous short chain mmBCFA in cultured human cells; format: cell-based
[5] = test system: mouse C2C12 (myoblasts); assay: Elongation of exogenous short chain mmBCFA in cultured mouse cells; format: cell-based
[6] = test system: N2; assay: Growth and maturation of wild type N2 on supplemented plates; format: in vivo, C. elegans
[7] = test system: human cancer; conditions: Yang, Liu et al. 2000; cited from earlier work
[8] = test system: elo-5(RNAi) L1-arrested worms; assay: Recovery of elo-5(RNAi) worms from L1 arrest with FA supplements; format: in vivo, Caenorhabditis elegans
Experimental: as §1

[9] = test system: lpd-1(RNAi) animals; assay: Rescue of lpd-1(RNAi) feeding defects by supplement; format: in vivo, C. elegans; conditions: supplement added to the plates
[10] = test system: mmBCFA deficient early L1 larvae; assay: Feeding of mmBCFA deficient early L1 larvae on plates without bacteria; format: in vivo, C. elegans; conditions: supplements on the plates without bacteria

Question: Which “elongation of the supplement to C17ISO” value [1] does the source give for `COC(=O)CCCCCCCCCC(C)C` [C13ISO-methyl ester] here?
Answer: can be efficiently elongated to C17ISO

Question: Which “plates on which the supplement rescued the elo-5 RNAi defects” value [2] does the source give for `CC(C)CCCCCCCCCC(=O)O` [C13ISO] here?
Answer: 0/30

Question: And the “rescue of mmBCFA deficiency” value [2]?
Answer: rescue mmBCFA deficiency

Question: What about the “egg laying and survival on the second day of adulthood” value ([3]; elo-5(gk208), 0.75 mM and 1 mM) of the same molecule?
Answer: fail to lay eggs and die a few days later

Question: And the growth rate ([3]; elo-5(gk208), 0.75 mM and 1 mM)?
Answer: grow as fast as N2 without supplements

Question: What about the “developmental stage on forth day after hatching” value ([3]; elo-5(gk208), 10 mM) of the same molecule?
Answer: remain at L4 or young adults stages

Question: And the “effect on growth and maturation” value ([3]; elo-5(gk208), 2.5-10 mM)?
Answer: slowing at the L4 stage accompanied by a delay in the adult maturation

Question: What about the brood size ([3]; elo-5(gk208), high concentrations (2.5-10 mM)) of the same molecule?
Answer: maintain wild type brood size

Question: What about the “animals that reach adulthood and have viable progeny” value ([3]; supplement concentration above 0.75 mM) of the same molecule?
Answer: 100%

Question: What about the “rescue from elo-5(gk208) phenotype” value ([3]; supplement concentration range 0-0.5 mM) of the same molecule?
Answer: no rescue; also recorded: does not rescue

Question: And the “elongation into C15ISO and C17ISO in vitro” value ([4]; RIN-M5F (pancreatic beta cells))?
Answer: able to elongate

Question: What about the “elongation into C15ISO and C17ISO in vitro” value ([4]; SY-5Y (neuroblastoma)) of the same molecule?
Answer: able to elongate

Question: What about the “elongation into C15ISO and C17ISO in vitro” value [5] of the same molecule?
Answer: able to elongate

Question: And the growth rate ([6]; N2, 0.75 mM and 1 mM)?
Answer: grow as fast as N2 without supplements

Question: And the “developmental stage on forth day after hatching” value ([6]; N2, 10 mM)?
Answer: remain at L4 or young adults stages

Question: And the “effect on growth and maturation” value ([6]; N2, 2.5-10 mM)?
Answer: slowing at the L4 stage accompanied by a delay in the adult maturation

Question: And the brood size ([6]; N2, high concentrations (2.5-10 mM))?
Answer: maintain wild type brood size

Question: And the “ability to modulate growth rate between L4 and adult stage” value ([6]; dietary supplement)?
Answer: modulate growth rate between L4 and adult stage

Question: For `CC(C)CCCCCCCCCCCC(=O)O` [C15ISO, 13-methyl myristic acid], which “plates with partial rescue of the elo-5 RNAi defects” value [2] is on record?
Answer: 23/38

Question: And the “rescue of mmBCFA deficiency” value [2]?
Answer: rescue mmBCFA deficiency

Question: And the “rescue of elo-5(RNAi) phenotype” value [2]?
Answer: partially rescued

Question: What about the “incorporation of the supplement into lipids and its elongation (GC)” value (“incorporation” for short) [1] of the same molecule?
Answer: no accumulation of C15ISO or its elongation to C17ISO was detectable

Question: What about the “effect on human cancer” value [7] of the same molecule?
Answer: growth inhibitor of human cancer where it selectively induces apoptosis

Question: For `COC(=O)CCCCCCCCCCCC(C)C` [C15ISO-methyl ester], which “elongation of the supplement to C17ISO” value [1] is on record?
Answer: can be efficiently elongated to C17ISO

Question: Which “plates with partial rescue of the elo-5 RNAi defects” value [2] does the source give for `CCC(C)CCCCCCCCCCC(=O)O` (stereo not shown) [C15anteISO] here?
Answer: 20/28

Question: With `CCCCCCCCCCCCCCCC(=O)O` [C16:0, palmitic acid, reference compound] as the molecule, how does the “plates on which the supplement rescued the elo-5 RNAi defects” value [2] read?
Answer: 0/30

Question: With `CCCCCC/C=C\CCCCCCCC(=O)O` [C16:1 n7, reference compound] as the molecule, how does the “plates on which the supplement rescued the elo-5 RNAi defects” value [2] read?
Answer: 0/30

Question: With `CCCCCCCCCCCCCCCCC(=O)O` [C17:0, reference compound] as the molecule, how does the “plates on which the supplement rescued the elo-5 RNAi defects” value [2] read?
Answer: 0/30

Question: With `CC(C)CCCCCCCCCCCCCC(=O)O` [C17ISO, 15-methyl hexadecanoic acid] as the molecule, how does the “plates on which the supplement rescued the elo-5 RNAi defects” value [2] read?
Answer: 52/60

Question: What about the “rescue of mmBCFA deficiency” value [2] of the same molecule?
Answer: rescue mmBCFA deficiency

Question: What about the “rescue of elo-5(RNAi) phenotype” value [2] of the same molecule?
Answer: fully rescued

Question: And the “arrested L1 rescued to full growth and proliferation” value (from here on “arrested L1 rescued”) ([8]; four-day-old L1)?
Answer: ~1%

Question: What about the “arrested L1 rescued” value ([8]; two day-arrested L1) of the same molecule?
Answer: about 50%

Question: And the “incorporation” value [1]?
Answer: significantly incorporated into lipids

Question: What about the “growth of homozygous elo-5(gk208) on supplemented plates” value ([3]; plates supplemented or seeded) of the same molecule?
Answer: grew normally; also recorded: grew without any obvious morphological defects

Question: And the “rescue of lpd-1 RNAi feeding defects (slow growth, morphological abnormalities, egg-laying defects)” value [9]?
Answer: did not significantly rescue these defects

Question: And the “development of early L1 arrested larvae” value [10]?
Answer: able to elongate and proceed to the mid-L1 stage

Question: For `CCC(C)CCCCCCCCCCCCC(=O)O` (stereo not shown) [C17anteISO, 14-methyl hexadecanoic acid], which “plates on which the supplement rescued the elo-5 RNAi defects” value [2] is on record?
Answer: 58/60

Question: What about the “rescue of elo-5(RNAi) phenotype” value [2] of the same molecule?
Answer: fully rescued

Question: What about the “arrested L1 rescued” value ([8]; four-day-old L1) of the same molecule?
Answer: ~1%

Question: And the “arrested L1 rescued” value ([8]; two day-arrested L1)?
Answer: about 50%

Question: And the “incorporation” value [1]?
Answer: significantly incorporated into lipids

Question: Which “plates on which the supplement rescued the elo-5 RNAi defects” value [2] does the source give for `CCCCC/C=C\C/C=C\C/C=C\CCCCC(=O)O` [C18:3 n6, reference compound] here?
Answer: 0/30

Question: With `CC(C)CCCCCCCCCCCCCCC(=O)O` [C18ISO, reference compound] as the molecule, how does the “plates on which the supplement rescued the elo-5 RNAi defects” value [2] read?
Answer: 0/30

Question: With `CC(C)CCCCCCCCCCCCCCCC(=O)O` [C19ISO, reference compound] as the molecule, how does the “plates on which the supplement rescued the elo-5 RNAi defects” value [2] read?
Answer: 0/30

Question: Which “plates on which the supplement rescued the elo-5 RNAi defects” value [2] does the source give for `CC(C)CCCC(C)CCCC(C)CCCC(C)CC(=O)O` (stereo not shown) [phytanic acid, reference compound] here?
Answer: 0/30
